# Reference: the supplement of paper PMC10331698
# ± gives the standard deviation of the averaged measurements.
# Columns and labels:
# Experiment in all cases: level (log10 ratio to DMSO vehicle control); higher = higher biomarker level / cell amount than vehicle control
# [1] = compound: C=C(C)C(=O)OCC(F)(F)C(F)(F)C(F)(F)F [2,2,3,3,4,4,4-Heptafluorobutyl methacrylate]; details: in DMSO
# Protocol: (§1)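 BioMAP Diversity Plus panel of 12 human primary cell co-culture systems (3C, 4H, LPS, SAg, BT, BF4T, BE3C, CASM3C, HDF3CGF, KF3CT, MyoF, Mphg). Compounds were added 1 h before stimulation and left for 24 h (MyoF 48 h; BT 72 h for soluble read-outs or 6 d for IgG). Biomarkers were read by ELISA, cytotoxicity by SRB, PBMC viability and proliferation by Alamar Blue. Each well value was divided by the mean of 8 DMSO control wells on the same plate and log10 transformed; duplicate blinded samples were tested at 4 concentrations.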
# [2] = compound: OCC(F)(F)C(F)(F)C(F)(F)C(F)(F)C(F)(F)C(F)(F)F [6:1 Fluorotelomer alcohol]; details: in DMSO
# Protocol: as §1
# [3] = compound: FC(F)(F)C(F)(F)C(F)(F)C(F)(F)CCI [1H,1H,2H,2H-Perfluorohexyl iodide]; details: in DMSO
# Protocol: as §1
# [4] = compound: OCCCC(F)(F)C(F)(F)C(F)(F)C(F)(F)C(F)(F)C(F)(F)C(F)(F)C(F)(F)F [3-(Perfluorooctyl)propanol]; details: 6700 nM; in DMSO
# Protocol: as §1
# [5] = compound: C=CC(=O)OCC(F)(F)C(F)(F)C(F)(F)C(F)(F)C(F)(F)C(F)(F)C(F)(F)C(F)F [1H,1H,9H-Perfluorononyl acrylate]; details: in DMSO
# Protocol: as §1
# [6] = compound: O=P(O)(O)CCC(F)(F)C(F)(F)C(F)(F)C(F)(F)C(F)(F)C(F)(F)F [2-(Perfluorohexyl)ethylphosphonic acid]; details: in DMSO
# Protocol: as §1
# [7] = compound: FC(F)(F)COC(OCC(F)(F)F)OCC(F)(F)F [tris(Trifluoroethoxy)methane]; details: in DMSO
# Protocol: as §1
Test System,level (log10) ([1]; 6700 nM),level (log10) ([1]; 20000 nM),level (log10) ([1]; 60000 nM),level (log10) ([2]; 6700 nM),level (log10) ([2]; 20000 nM),level (log10) ([2]; 60000 nM),level (log10) ([3]; 6700 nM),level (log10) ([3]; 20000 nM),level (log10) ([3]; 60000 nM),level (log10) [4],level (log10) ([5]; 6700 nM),level (log10) ([5]; 20000 nM),level (log10) ([5]; 60000 nM),level (log10) ([6]; 6700 nM),level (log10) ([6]; 20000 nM),level (log10) ([6]; 60000 nM),level (log10) ([7]; 6700 nM),level (log10) ([7]; 20000 nM),level (log10) ([7]; 60000 nM)
HDF3CGF:MMP-1,0 ± 0.023,0.0015 ± 0.0064,-0.0005 ± 0.016,0.002 ± 0.0099,0.008 ± 0.0071,-0.0355 ± 0.07,-0.001 ± 0.0014,0.0085 ± 0.0035,0.0145 ± 0.018,-0.0315 ± 0.044,0.006 ± 0.0057,0.03 ± 0.0057,0.0375 ± 0.016,0.006 ± 0.0071,-0.0095 ± 0.013,-0.0045 ± 0.067,-0.005 ± 0.0099,-0.005 ± 0.0014,0 ± 0.0085
MyoF:bFGF,0.007 ± 0.0099,-0.01 ± 0.0085,0.007 ± 0.024,-0.001 ± 0.0014,0.0005 ± 0.013,0.006 ± 0.011,0.0095 ± 0.021,0.0205 ± 0.026,0.0285 ± 0.042,-0.034 ± 0.017,0.012 ± 0.0057,0.0155 ± 0.021,0.027 ± 0.0014,-0.0415 ± 0.011,-0.0285 ± 0.00071,-0.0255 ± 0.021,-0.004 ± 0.0042,-0.0155 ± 0.011,-0.006 ± 0.0028
CASM3C:CCL2/MCP-1,0.005 ± 0.013,0.0045 ± 0.0035,0.013 ± 0.0071,-0.015 ± 0.0071,-0.0125 ± 0.0078,-0.034 ± 0.034,0.0045 ± 0.0021,-0.008 ± 0.0028,0.0235 ± 0.067,-0.0175 ± 0.016,-0.0125 ± 0.0035,-0.0095 ± 0.0092,-0.0075 ± 0.018,-0.009 ± 0.0028,-0.0145 ± 0.013,-0.003 ± 0.033,0.001 ± 0.0042,-0.0005 ± 0.0064,0.0215 ± 0.035
BE3C:SRB,-0.003 ± 0.011,-0.0095 ± 0.0064,-0.001 ± 0.0071,-0.0015 ± 0.005,-0.0055 ± 0.0021,0.002 ± 0.011,-0.003 ± 0.0028,-0.0035 ± 0.00071,0.002 ± 0.011,-0.002 ± 0.0028,-0.004,0.0005 ± 0.005,0.001 ± 0.016,-0.01 ± 0.0042,-0.001 ± 0.0085,0.001 ± 0.02,-0.002 ± 0.0028,0.005 ± 0.0057,-0.002 ± 0.0085
KF3CT:TIMP-2,-0.004 ± 0.016,-0.0165 ± 0.00071,-0.0035 ± 0.012,-0.0025 ± 0.005,0.0035 ± 0.0021,0.008 ± 0.017,-0.0185 ± 0.005,-0.009 ± 0.018,-0.008 ± 0.02,-0.0255 ± 0.063,-0.0125 ± 0.046,-0.022 ± 0.0085,-0.042 ± 0.011,-0.0075 ± 0.012,0.011,0.013 ± 0.017,-0.0025 ± 0.021,-0.007 ± 0.011,-0.0045 ± 0.012
